From ChEMBL document CHEMBL1201862, “PubChem BioAssay data set” (2004)
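Five concentrations, 48 hours, 96-well plates. At the GI50, growth is halved.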 Calls of active or inactive are those of the source. Cut-off read from the data, not from the text of the source: active = GI50 up to about 1.1 µM and inactive = higher.

Experiments:
Assay in all cases: NCI anticancer screen, dose series, 48 h
M14 = system: M14
KM12 = system: KM12
SNB-19 = system: SNB-19
HT-29 = system: HT-29
UO-31 = system: UO-31
OVCAR-5 = system: OVCAR-5
OVCAR-4 = system: OVCAR-4
HCT-116 = system: HCT-116
A498 = system: A498
HOP-62 = system: HOP-62
COLO 205 = system: COLO 205
OVCAR-8 = system: OVCAR-8
SK-MEL-2 = system: SK-MEL-2
SK-OV-3 = system: SK-OV-3
HL-60 = system: HL-60

Measured: GI50

CN(C)CC1(C)CC/C(=C\c2ccccc2)C1=O (configuration not stated)
inactive: M14 > 100 µM | KM12 > 100 µM | SNB-19 44.1 µM | HT-29 > 100 µM | UO-31 > 100 µM | OVCAR-5 > 100 µM | OVCAR-4 > 100 µM | HCT-116 > 100 µM | A498 > 100 µM | HOP-62 > 100 µM | COLO 205 > 100 µM | OVCAR-8 > 100 µM | SK-MEL-2 > 100 µM

S=c1nc(N2CCCCC2)ss1
inactive: SK-OV-3 > 100 µM | M14 20.2 µM | KM12 17.2 µM | SNB-19 27.6 µM | HT-29 28.8 µM | UO-31 17.7 µM | OVCAR-5 > 100 µM | OVCAR-4 38.2 µM | HCT-116 17.7 µM | A498 20.2 µM | HOP-62 26.7 µM | HL-60 13.5 µM | OVCAR-8 28.5 µM | SK-MEL-2 20 µM

COC(=O)N/N=C/C(=C/Nc1ccccc1)[N+](=O)[O-]
inactive: SK-OV-3 > 100 µM | M14 > 100 µM | SNB-19 > 100 µM | HT-29 > 100 µM | UO-31 > 100 µM | OVCAR-4 > 100 µM | HCT-116 > 100 µM | HOP-62 > 100 µM | COLO 205 > 100 µM | HL-60 > 100 µM | OVCAR-8 > 100 µM

O=C1CCCC[C@H]1[C@H]1CCC[C@@H]([C@H]2CCCCC2=O)C1=O
inactive: SK-OV-3 > 100 µM | M14 > 100 µM | KM12 > 100 µM | SNB-19 > 100 µM | HT-29 > 100 µM | UO-31 > 100 µM | OVCAR-5 > 100 µM | OVCAR-4 > 100 µM | HCT-116 > 100 µM | A498 > 100 µM | HOP-62 > 100 µM | COLO 205 > 100 µM | HL-60 > 100 µM | SK-MEL-2 > 100 µM

C/C(=N\NC(=O)CC(=O)Nc1ccc(Cl)cc1)c1cc2ccccc2oc1=O
inactive: SK-OV-3 > 100 µM | M14 > 100 µM | KM12 > 100 µM | SNB-19 > 100 µM | HT-29 > 100 µM | UO-31 > 100 µM | HCT-116 > 100 µM | HOP-62 > 100 µM | COLO 205 > 100 µM | HL-60 > 100 µM | OVCAR-8 > 100 µM

CCCN(CCCCC(NC(C)=O)C(=O)NCc1ccccc1)C(=O)N(C)N=O (configuration not stated)
inactive: SK-OV-3 > 100 µM | M14 > 100 µM | KM12 > 100 µM | SNB-19 > 100 µM | HT-29 > 100 µM | UO-31 > 100 µM | OVCAR-5 > 100 µM | OVCAR-4 > 100 µM | HCT-116 > 100 µM | A498 > 100 µM | HOP-62 > 100 µM | COLO 205 > 100 µM | OVCAR-8 > 100 µM | SK-MEL-2 > 100 µM

C/C(=N\NC(N)=S)C(CN(CC(C)C)CC(C)C)C(=O)Nc1ccc(C)cc1C (configuration not stated)
inactive: SK-OV-3 > 100 µM | M14 > 100 µM | KM12 > 100 µM | SNB-19 > 100 µM | HT-29 > 100 µM | UO-31 > 100 µM | OVCAR-5 > 100 µM | OVCAR-4 > 100 µM | HCT-116 > 100 µM | A498 > 100 µM | HOP-62 > 100 µM | COLO 205 > 100 µM | HL-60 > 100 µM | OVCAR-8 > 100 µM | SK-MEL-2 > 100 µM

Cc1ccccc1C1=[N+]([O-])c2ccc(Cl)cc2C1=O
inactive: SK-OV-3 26.4 µM | M14 16.3 µM | KM12 14.1 µM | SNB-19 28.1 µM | HT-29 5.01 µM | UO-31 14.3 µM | OVCAR-5 23.2 µM | HCT-116 7.46 µM | A498 20.2 µM | HOP-62 20 µM | COLO 205 7.76 µM | HL-60 2.35 µM | OVCAR-8 7.14 µM | SK-MEL-2 14.1 µM

O=S(=O)(c1ccccc1)N1CCC1c1ccccc1 (configuration not stated)
inactive: SK-OV-3 > 100 µM | M14 > 100 µM | KM12 > 100 µM | SNB-19 > 100 µM | HT-29 > 100 µM | UO-31 29.6 µM | OVCAR-4 89.5 µM | HCT-116 87.5 µM | A498 > 100 µM | HOP-62 > 100 µM | COLO 205 > 100 µM | HL-60 6.34 µM | OVCAR-8 > 100 µM | SK-MEL-2 > 100 µM

Sc1ccccc1S
inactive: SK-OV-3 > 100 µM | M14 > 100 µM | SNB-19 > 100 µM | HT-29 > 100 µM | UO-31 > 10 µM | OVCAR-4 > 100 µM | HOP-62 > 100 µM | COLO 205 > 100 µM | HL-60 > 100 µM | OVCAR-8 > 10 µM

CCCCCCCC(=O)OCC1OC(n2cc(F)c(=O)[nH]c2=O)C(N)C(O)C1O (configuration not stated)
inactive: SK-OV-3 > 100 µM | M14 > 100 µM | KM12 > 100 µM | SNB-19 > 100 µM | HT-29 > 100 µM | UO-31 > 100 µM | OVCAR-5 > 100 µM | OVCAR-4 > 100 µM | HCT-116 > 100 µM | A498 > 100 µM | HOP-62 > 100 µM | COLO 205 > 100 µM | HL-60 > 100 µM | OVCAR-8 > 100 µM | SK-MEL-2 > 100 µM

COc1cccc2c1C(=O)c1c(O)c3c(c(O)c1C2=O)CC(O)(C(C)=O)CC3OC1CC([N+](C)(C)C)C(O)C(C)O1 (configuration not stated)
inactive: SK-OV-3 > 100 µM | M14 > 100 µM | KM12 > 100 µM | SNB-19 > 100 µM | HT-29 94.2 µM | UO-31 > 100 µM | OVCAR-5 > 100 µM | OVCAR-4 > 100 µM | HCT-116 66.8 µM | A498 > 100 µM | HOP-62 > 100 µM | COLO 205 48.1 µM | HL-60 24 µM | OVCAR-8 54.3 µM | SK-MEL-2 > 100 µM

N#C[C-](C#N)[n+]1ccc(Cl)cc1
inactive: SK-OV-3 34 µM | M14 17 µM | KM12 23.3 µM | SNB-19 32.1 µM | HT-29 18 µM | UO-31 22.8 µM | OVCAR-5 18.7 µM | OVCAR-4 24.9 µM | HCT-116 14.5 µM | A498 28.7 µM | HOP-62 29.2 µM | COLO 205 18.5 µM | HL-60 4.27 µM | OVCAR-8 17.1 µM

COS(=O)CCOC(=O)c1ccccc1SSc1ccccc1C(=O)OCCS(=O)OC (configuration not stated)
inactive: SK-OV-3 > 100 µM | M14 20 µM | KM12 27.1 µM | SNB-19 > 100 µM | HT-29 14.1 µM | UO-31 15.5 µM | OVCAR-5 40.9 µM | OVCAR-4 16.4 µM | A498 > 100 µM | HOP-62 > 100 µM | COLO 205 23.4 µM | OVCAR-8 22.3 µM | SK-MEL-2 37.7 µM

Nc1nc(CCc2n[nH]c(N)n2)n[nH]1
inactive: SK-OV-3 > 100 µM | M14 > 100 µM | KM12 > 100 µM | SNB-19 > 100 µM | HT-29 > 100 µM | UO-31 > 100 µM | OVCAR-5 > 100 µM | OVCAR-4 > 100 µM | HCT-116 > 100 µM | A498 > 100 µM | HOP-62 > 100 µM | COLO 205 > 100 µM | HL-60 > 100 µM | OVCAR-8 > 100 µM | SK-MEL-2 > 100 µM
